Laboratory results as given in the supplement of paper PMC10307832.

Key:
Assay in all cases: relative viability (nuclei count vs DMSO), 5 days (fraction); higher = more cells survive
Obatoclax + Alpelisib = compound: COC1=CC(c2cc3ccccc3[nH]2)=N/C1=C\c1[nH]c(C)cc1C [Obatoclax] + Cc1nc(NC(=O)N2CCC[C@H]2C(N)=O)sc1-c1ccnc(C(C)(C)C(F)(F)F)c1 [Alpelisib] (partner 2 µM)
Procedure, shortened: (§1)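 Dosing by pin tool came one day after lung cancer cell lines were seeded in 1536-well plates, using either one drug or a fixed anchor-drug dose plus five library-drug doses (not always all listed) in √10 steps. After 5 days, nuclei were counted on 4× images. Relative viability is treated-well nuclei count divided by vehicle-well nuclei count, and values are medians of duplicate plates.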

Obatoclax + Foretinib = compound: COC1=CC(c2cc3ccccc3[nH]2)=N/C1=C\c1[nH]c(C)cc1C [Obatoclax] + COc1cc2c(Oc3ccc(NC(=O)C4(C(=O)Nc5ccc(F)cc5)CC4)cc3F)ccnc2cc1OCCCN1CCOCC1 [Foretinib] (partner 0.25 µM)
Procedure, shortened: as §1

Bortezomib + Linsitinib = compound: CC(C)C[C@H](NC(=O)[C@H](Cc1ccccc1)NC(=O)c1cnccn1)B(O)O [Bortezomib] + C[C@]1(O)C[C@@H](c2nc(-c3ccc4ccc(-c5ccccc5)nc4c3)c3c(N)nccn32)C1 [Linsitinib] (partner 1 µM)
Procedure, shortened: as §1

[1] = compound: CC1=CC(=NN1)NC2=CC(=NC(=N2)/C=C/C3=CC=CC=C3)N4CCN(CC4)C + NC(=O)Nc1cc(-c2cccc(F)c2)sc1C(=O)N[C@H]1CCCNC1 [AZD7762] (partner 0.2 µM)
Procedure, shortened: as §1

Cell Line | relative viability (Obatoclax + Alpelisib; first compound 0.01 µM) | relative viability (Obatoclax + Alpelisib; first compound 0.03162 µM) | relative viability (Obatoclax + Alpelisib; first compound 0.1 µM) | relative viability (Obatoclax + Alpelisib; first compound 0.3162 µM) | relative viability (Obatoclax + Alpelisib; first compound 1 µM) | relative viability (Obatoclax + Foretinib; first compound 0.01 µM) | relative viability (Obatoclax + Foretinib; first compound 0.03162 µM) | relative viability (Obatoclax + Foretinib; first compound 0.1 µM) | relative viability (Obatoclax + Foretinib; first compound 0.3162 µM) | relative viability (Obatoclax + Foretinib; first compound 1 µM) | relative viability (Bortezomib + Linsitinib; first compound 0.0002 µM) | relative viability (Bortezomib + Linsitinib; first compound 0.000632 µM) | relative viability (Bortezomib + Linsitinib; first compound 0.002 µM) | relative viability (Bortezomib + Linsitinib; first compound 0.006325 µM) | relative viability (Bortezomib + Linsitinib; first compound 0.02 µM) | relative viability ([1]; first compound 0.08 µM) | relative viability ([1]; first compound 0.253 µM) | relative viability ([1]; first compound 0.8 µM) | relative viability ([1]; first compound 2.53 µM) | relative viability ([1]; first compound 8 µM)
COR-L 105 | 1.02 | 1.21 | 0.944 | 0.904 | 0.336 | 1.01 | 1.19 | 1.05 | 0.534 | 0.454 | 0.848 | 0.99 | 0.711 | 0.293 | 0.282 |  |  |  |  | 
Calu-6 | 0.899 | 1.01 | 0.898 | 0.677 | 0.205 | 0.901 | 0.739 | 0.927 | 0.919 | 0.321 | 0.938 | 0.775 | 0.961 | 0.214 | 0.0654 |  |  |  |  | 
ChaGo-K-1 |  |  |  |  |  | 0.83 | 0.947 | 0.913 | 0.901 | 1.03 |  |  |  |  |  | 0.823 | 0.935 | 0.824 | 0.439 | 0.241
EBC-1 | 0.82 | 0.92 | 0.902 | 0.435 | 0.251 | 0.102 | 0.112 | 0.119 | 0.119 | 0.113 | 0.902 | 0.801 | 0.516 | 0.0706 | 0.0667 |  |  |  |  | 
EKVX | 0.941 | 0.9 | 1.02 | 0.853 | 0.891 | 0.911 | 0.76 | 0.427 | 0.752 | 1.09 | 1.01 | 0.936 | 0.915 | 0.609 | 0.0808 | 0.649 | 0.667 | 0.753 | 0.413 | 0.122
EMC-BAC-2 | 0.658 | 0.797 | 0.744 | 0.738 | 0.696 | 0.987 | 1.03 | 1.08 | 0.864 | 0.788 | 0.828 | 0.805 | 0.786 | 0.46 | 0.132 | 1.11 | 1.22 | 1.1 | 0.654 | 0.354
EPLC-272H | 1.08 | 0.962 | 0.808 | 0.906 | 0.941 | 0.735 | 0.577 | 0.769 | 0.619 | 0.499 |  |  | 1.26 | 1.29 | 0.109 | 0.17 | 0.209 | 0.196 | 0.116 | 0.0909
H3255 | 0.611 | 0.725 | 0.732 | 0.631 | 0.55 | 0.826 | 0.802 | 0.891 | 1.05 | 0.996 | 0.914 | 1.02 | 0.705 | 0.263 | 0.19 | 0.866 | 0.935 | 0.955 | 0.782 | 0.374
